Reference: US4115587A, “Fatty acid amides of norfenfluramine and compositions and methods thereof” (A. H. Robins Company, Inc., priority 1976, dated 1978)
Read-outs that look alike come from different tables or passages of the source.

Assays:
[1] = tested on: Serum Triglycerides and Cholesterol; experiment: Triton-induced hyperlipidemia test (Table 1); format: in vivo, male Sprague-Dawley rats; settings: 140 mg/kg p.o.; for % Change Cholesterol / % Change Triglycerides: vs control; for Serum Cholesterol / Serum Triglycerides: ± SD
Procedure: Fasted, male Sprague-Dawley rats weighing 250-350 g were fed ad libitum a commercial lab chow with free access to water. The animals were fasted overnight and administered Triton-WR-1339 (produced by Ruger Chemical Company, Inc., Irvington, New Jersey) as described by Schurr et al.; Lipids 7 68(1972) except the procedure was modified to use the saphenous vein and divided doses of 70 mg/kg. The rats were anesthetized with sodium pentobarbital and terminally bled by heart puncture. Serum was stored at -20° C. until it was analyzed for total cholesterol and triglycerides. Comparison was also made with clofibrate.

[2] = Dietary-induced hyperlipemia test, basal semi-purified diet: liver weight, body weight, food consumption (Table 2); format: in vivo, male Sprague-Dawley rats; settings: .2% in food
Procedure: (§1) General feeding experiments were conducted on rats to determine the effect of the amides of this invention on serum and liver lipids of animals fed a basal diet and a basal diet supplemented with cholesterol. In addition, the effect of these drugs on serum lipoproteins was studied as well as their effect on body weight, gross feed efficiency, liver weight, appetite and energy utilization with respect to their metabolic size. Male, Sprague-Dawley rats weighing 150-175 g. were housed in cages with raised wire floors in a room kept at a temperature of 24°-26° C. with a 12-hour day and 12-hour night cycle, fed ad libitum a semipurified diet consisting by weight % composition: vitamin-free casein, 20; glucose, 63; hydrogenated coconut oil, 10; GBI Vitamin Fortification Mixture, Cat. #40060 obtained from General Biochemical Company of Chargrin Falls, Ohio, 1; modified salt mix of Williams and Briggs, Cat. #170911 obtained from General Biochemical Company, 4; and cellulose, 2; and watered. The modified salt mix provided the following amounts in grams of elements per Kg. of diet:
(§2) Diets were supplemented with 0.5% cholic acid, 1% cholesterol, and drug at the expense of glucose. The experimental period was 18-21 days with body weight and food measured at specified intervals. Animals were fasted overnight and terminally bled by cardiac puncture. Blood was anti-coagulated with ethylenediamine tetracetic acid and plasma was separated by centrifugation, and stored at -20° C. Livers were excised, weighed, and stored at -20° C. All samples remained at this temperature until they were analyzed for total lipids, total cholesterol, triglycerides and phospholipids. Gross feed efficiency together with the effect of metabolic size on food intake and the effect of drug on energy utilization were determined.
(§3) Results of testing the mixed amides of Example 5 and reference compounds in rats on a basal diet according to the foregoing procedure for dietary induced hyperlipemia are in Tables 2 and 3.

Serum and Liver Lipids [3] = experiment: Dietary-induced hyperlipemia test, basal semi-purified diet: serum and liver lipids (Table 3); format: in vivo, male Sprague-Dawley rats; settings: .2% in food, ± S.D.
Procedure: as §1, §2, §3

[4] = format: in vivo, male Sprague-Dawley rats; settings: cholesterol diet, .2% in food
Procedure: as §1, §2
(§4) Results of testing the mixed amides of Example 5 an reference compounds in rats on a basal diet with added cholesterol according to the foregoing procedure for dietary induced hyperlipemia are in Tables 4 and 5.

Serum and Liver Lipids [5] = experiment: Dietary-induced hyperlipemia test, basal diet with cholesterol: serum and liver lipids (Table 5); format: in vivo, male Sprague-Dawley rats; settings: .2% in food, ± S.D.
Procedure: as §1, §2, §4

Serum Lipoproteins = experiment: Serum lipoproteins of rats fed semi-purified diet supplemented with cholesterol (Table 7); format: in vivo; settings: .2% in food
Procedure: as §1, §2
^a VLDL, very low density lipoproteins; LDL, low density lipoproteins
and HDL, high density lipoproteins as determined on a Beckman-Gilford

[6] = tested on: β-Sterol Synthesis, Liver; experiment: β-Sterol synthesis, acetate-1-14C incorporation, liver (Table 8); format: in vivo, male Sprague-Dawley rats; settings: Liver; 140 mg/kg p.o.; ± S.D.
Procedure: (§5) The effect of the mixed amides of Example 5 and reference compounds on β Sterol synthesis was determined by a modified procedure of Hill and Dvornik Arch. Biochem. Biophys. 114 (1966), 88. Male Sprague-Dawley rates weighing 127-175 g. were freely provided a basal semi-purified diet and water. The rats were housed in cages with raised wire floors in a room kept at a temperature of 24°-26° C. with a 12-hour day-12-hour night cycle. The cycle was reversed so the night cycle corresponded to the working day to take advantage of the circadian rhythm that favors cholesterol synthesis. The test period was five days and 20 μCi sodium acetate-1-^14 C (Sp. act. 56 mCi/m mole) administered intraperitoneally. Animals were sacrificed under carbon dioxide and the distal 10 cm of the ileum as well as the median and left liver lobes excised and homogenized. Subsequently, the β Sterols were isolated as the digitonide and the radioactivity determined in a Packard Tricarb Liquid Scintillation Spectrometer Model 3385 using 0.5% 2,5 diphenyloxazole and 8% naphthalene in a solvent mixture of 40% toluene, 40% dioxane and 20% absolute ethanol. Data for the effect of the mixed amides of Example 5 on the synthesis of nonsaponifiable substances and β Sterols as determined by the Digitonide method are shown in Table 8. […] A prior art compound, α-methylbenzyllinoleamide at 140 mg/kg, p.o. had no effect on cholesterol synthesis in either tissue.

[7] = tested on: β-Sterol Synthesis, Ileum; experiment: β-Sterol synthesis, acetate-1-14C incorporation, ileum (Table 8); format: in vivo, male Sprague-Dawley rats; settings: Ileum; 140 mg/kg p.o.; ± S.D.
Procedure: as §5

Serum and Liver Lipids [8] = experiment: Linoleamide of norfenfluramine in rats fed a hypercholesteremic diet: serum and liver lipids (Table 6); format: in vivo; settings: 0.2% in food
Procedure: as §1, §2
(a) ± values are standard deviation of 10 animals per group.
(b) Semi-purified diet supplemented with 1% cholesterol and 0.5% cholic
acid at expense of glucose.

CCCCCCCC/C=C/CCCCCCCC(=O)NC(C)Cc1cccc(C(F)(F)F)c1 (stereo not drawn) [Ex.3, N-[1-methyl-2-(3-trifluoromethylphenyl)ethyl]octadec-9-enamide trans isomer]
% Change Cholesterol ([1]; Test Group IV): -25% | % Change Triglycerides ([1]; Test Group IV): -58% | Serum Cholesterol ([1]; Test Group IV): 210.0 ± 47.8 mg/100 ml | Serum Triglycerides ([1]; Test Group IV): 260.0 ± 137.8 mg/100 ml

CCOC(=O)C(C)(C)Oc1ccc(Cl)cc1 [Clofibrate, ethyl p-chlorophenoxyisobutyrate]
% Change Cholesterol ([1]; Test Group I): -24.0% | % Change Triglycerides ([1]; Test Group I): -79% | Serum Cholesterol ([1]; Test Group I): 173.0 ± 54.0 mg/100 ml | Serum Triglycerides ([1]; Test Group I): 124.5 ± 7.8 mg/100 ml | % Change Cholesterol ([1]; Test Group II): -24% | Serum Cholesterol ([1]; Test Group II): 94.1 ± 13.6 mg/100 ml | % Change Triglycerides ([1]; Test Group III): -20% | Serum Cholesterol ([1]; Test Group III): 109.3 ± 24.4 mg/100 ml | Serum Triglycerides ([1]; Test Group III): 132.7 ± 64.5 mg/100 ml | % Change Cholesterol ([1]; Test Group IV): -24% | % Change Triglycerides ([1]; Test Group IV): -34% | Serum Cholesterol ([1]; Test Group IV): 213.0 ± 14.1 mg/100 ml | Serum Triglycerides ([1]; Test Group IV): 411.7 ± 118.0 mg/100 ml | Food Consumed [2]: 306 g | Gross Feed Efficiency ([2]; gross weight gain in grams/total food consumed in grams): .180 | Body wt, Final ([2]; ± S.D.): 210 ± 21 g | Liver wt per 100 g body wt. ([2]; ± S.D.): 4.4 ± .4 g | Liver wt, Total ([2]; ± S.D.): 9.2 ± .4 g | Liver Cholesterol (Serum and Liver Lipids [3]): 2.63 ± .09 mg/g | Liver Lipids, Total (Serum and Liver Lipids [3]): 51.21 ± 7.89 mg/g | Liver Triglycerides (Serum and Liver Lipids [3]): 1.78 ± .43 mg/g | Serum Cholesterol (Serum and Liver Lipids [3]): 89.83 ± 8.77 mg/100 ml | Serum Lipids, Total (Serum and Liver Lipids [3]): 143.70 ± 22.42 mg/100 ml | Serum Triglycerides (Serum and Liver Lipids [3]): 31.83 ± 7.08 mg/100 ml | Food Consumed [4]: 340 g | Gross Feed Efficiency ([4]; gross weight gain/total food consumed in grams): .215 | Body wt, Final ([4]; ± S.D.): 208 ± 16 g | Liver wt per 100 g body wt. ([4]; ± S.D.): 4.9 ± 1.2 g | Liver wt, Total ([4]; ± S.D.): 10.4 ± 2.6 g | Liver Triglycerides (Serum and Liver Lipids [5]): 7.83 ± 2.22 mg/g | Serum Cholesterol (Serum and Liver Lipids [5]; p<.05 for Ex. 5): 235.00 ± 68.27 mg/100 ml | Liver Cholesterol (Serum and Liver Lipids [5]; p<.05 for all): 14.17 ± 9.10 mg/g | Liver Lipids, Total (Serum and Liver Lipids [5]; p<.05 for all): 93.83 ± 12.06 mg/g | Serum Lipids, Total (Serum and Liver Lipids [5]; p<.05 for all): 430.33 ± 119.37 mg/100 ml | Serum Triglycerides (Serum and Liver Lipids [5]; p<.05 for clofibrate): 126.50 ± 47.21 mg/100 ml | Albumin, Percentage Composition (Serum Lipoproteins): 22.63% | HDL, Percentage Composition (Serum Lipoproteins): 9.03% | LDL, Percentage Composition (Serum Lipoproteins): 42.56% | VLDL, Percentage Composition (Serum Lipoproteins): 25.76% | Acetate-1-14C incorporated, Digitonide [6]: 1.588 ± 1.216 n moles/g tissue | Acetate-1-14C incorporated, Non-saponifiable [6]: 2.943 ± 1.707 n moles/g tissue | Acetate-1-14C incorporated, Digitonide [7]: 6.098 ± .909 n moles/g tissue | Acetate-1-14C incorporated, Non-saponifiable [7]: 6.774 ± 1.447 n moles/g tissue

CCCCC/C=C\C/C=C\CCCCCCCC(=O)NC(C)Cc1cccc(C(F)(F)F)c1 (stereo not drawn) [Ex. 1, N-[1-methyl-2-(3-trifluoromethylphenyl)ethyl]octadeca-9,12-dienamide(cis-cis)]
% Change Triglycerides ([1]; Test Group I): -54% | Serum Cholesterol ([1]; Test Group I): 209.0 ± 16.4 mg/100 ml | Serum Triglycerides ([1]; Test Group I): 268.7 ± 69.6 mg/100 ml | Liver Cholesterol (Serum and Liver Lipids [8]; SD 0.73 (10 animals), p<.05): 7.15 mg/g | Liver Triglycerides (Serum and Liver Lipids [8]; SD 3.67 (10 animals), p<.05): 5.59 mg/g | Serum Phospholipids (Serum and Liver Lipids [8]; SD 18.4 (10 animals)): 105.4 mg/100 ml | Serum Cholesterol (Serum and Liver Lipids [8]; SD 30 (10 animals), p<.05): 212 mg/100 ml | Serum Triglycerides (Serum and Liver Lipids [8]; SD 62 (10 animals), p<.05): 156 mg/100 ml | Liver Phospholipids (Serum and Liver Lipids [8]; SD printed + 8.75 (10 animals)): 24.1 mg/g

CCCCCCCC/C=C\CCCCCCCC(=O)NC(C)Cc1cccc(C(F)(F)F)c1 (stereo not drawn) [Ex.2, N-[1-methyl-2-(3-trifluoromethylphenyl)ethyl]octadec-9-enamide cis isomer]
% Change Cholesterol ([1]; Test Group IV): -39% | % Change Triglycerides ([1]; Test Group IV): -73% | Serum Cholesterol ([1]; Test Group IV): 173.3 ± 10.2 mg/100 ml | Serum Triglycerides ([1]; Test Group IV): 166.3 ± 37.2 mg/100 ml

CCCCCCCCCCCCCCCCCC(=O)NC(C)Cc1cccc(C(F)(F)F)c1 (stereo not shown) [Ex.4, N-[1-methyl-2-(3-trifluoromethylphenyl)ethyl]octadecanamide]
% Change Cholesterol ([1]; Test Group IV): -24% | % Change Triglycerides ([1]; Test Group IV): -74% | Serum Cholesterol ([1]; Test Group IV): 214.3 ± 91.6 mg/100 ml | Serum Triglycerides ([1]; Test Group IV): 160.0 ± 110.0 mg/100 ml
